Data set [1] deals with C57BL/6 male mice. The data set can be described thus: Prophylactic JAC4 administration, total body X-ray irradiation, small intestine villus length (Example 6). The data set is classed as in vivo. As for the experimental part: (§1) C57BL/6 male mice (24.8±1.6 g in body weight) aged 10 weeks were divided into 4 groups. JAC4 (100 mg/kg) or an equal volume of vehicle (polyethylene glycol:ethanol:physiological saline=47.5:7.5:50, v/v/v) was orally administered to the mice once daily for 7 consecutive days. After that, the mice were subjected to total body X-ray irradiation (6 Gy) and JAC4 or vehicle treatment was discontinued. After 7 days, the small intestine tissues were collected for HE staining and inspection, and the small intestine villus length was measured in all groups and statistically analyzed. The specific procedures are as follows: 3 mice were randomly selected from each group for statistical analysis of their small intestine tissue HE staining images, and for each mouse, 6 fields of view were randomly selected for inspection (*** p<0.001).

Data set [2] relates to C57BL/6 male mice. Description: Therapeutic JAC4 administration, total body X-ray irradiation, small intestine villus length (Example 7). The data set is classed as in vivo. As for the experimental part: as §1, with “groups. The mice were subjected to total body X-ray irradiation (6 Gy) before” for “groups.”, “The” for “After that, the mice were subjected to total body X-ray irradiation (6 Gy) and JAC4 or vehicle treatment was discontinued. After 7 days, the”

For data set [3], the system named is IEC-6 cells. The data set can be described thus: Colocalization of cytochrome C and mitochondria in irradiated IEC-6 cells (Example 13). To be noted: 1 μM JAC4 24 h pretreatment + 12 Gy, 24 h after. The data set is classed as cell-based. The protocol: The effect was explored in a small intestinal epithelial IEC-6 cell in-vitro radiation model.
Formulation of JAC4 (1 μM or 10 μM): 5 mg of JAC4 was added to 1527 μL of DMSO to prepare a 10 mM stock solution, which was then serially diluted into 2 mM and 200 μM stock solutions.
10 μL of 200 μM stock solution was added into 90 μL of complete culture medium. The 100-μL mixture was uniformly mixed before 900 μL of complete culture medium was added, and uniformly mixed again before 1 mL of complete culture medium was added. The mixture was again uniformly mixed and then added into a six-well plate to give 1 μM JAC4.
Control wells: 10 μL of DMSO was added into 90 μL of complete culture medium. The 100-μL mixture was uniformly mixed before 900 μL of complete culture medium was added, and uniformly mixed again before 1 mL of complete culture medium was added. The mixture was again uniformly mixed and then added into a six-well plate.
IEC-6 cells were pretreated for 24 h with 1 μM JAC4 or DMSO and subjected to radiation (12 Gy) treatment. After 24 h, colocalized cell immunofluorescent images of mitochondrial cytochrome C staining and mitochondria staining were acquired and subjected to fluorescent colocalization analysis using the Image J software to give colocalization correlation coefficients (***p<0.001) of cytochrome C and mitochondria in IEC-6 cells after different treatments.

Data set [4] has as its system SPCA-1 cells. The data set can be described thus: Subcutaneous SPCA-1 lung cancer xenograft model with X-ray radiation therapy (Example 20). Conditions: for tumor inhibition rate: day 13, vs control group. The data set is classed as in vivo. The protocol: SPCA-1 cells in the logarithmic growth phase were subcutaneously injected into male BALB/C nude mice aged 4-5 weeks at 5×10^6 cells/100 μL […]. When the tumor volume reached 60-100 mm^3 (tumor volume=length×width^2/2), the mice were randomized into a vehicle control group, a 100 mg/kg JAC4 group (daily treatment), a 3 Gy×5 X-ray radiation group (5 consecutive days of radiation), and a 100 mg/kg JAC4+3 Gy×5 X-ray radiation group, each containing 6 mice. The formulation of the vehicle for JAC4 was polyethylene glycol:ethanol:physiological saline=40:7.5:52.5, v/v/v. The vehicle group and the treatment groups were given the vehicle or the treatment at the same volume by the same route, respectively. The mice were kept anesthetized by isoflurane through a mask in a supine posture. The irradiation range was adjusted to the tumor and the whole lung with a width of about 2 cm through the width indicating lamp and the beam limiting device of the system. The chamber was closed, and the irradiation time was set to about 126 s according to the dose rate to enable the total dose to reach 3 Gy. The irradiator was turned on for the irradiation. 100 mg/kg JAC4 was administered intragastrically daily. The body weight and tumor volume were measured daily and the modeling was terminated on day 13 post-dose.
After the modeling was finished, the tumor tissue was subjected to HE staining according to the following specific procedures: 3 mice were randomly selected to provide the tumor tissue for HE staining in each group, and 6 fields of view were randomly selected for inspection.

Where [5] appears, read: non-radiation, JAC4 100 mg/kg oral 7 days.

For `c1ccc(CSc2nnc(C3COc4ccccc4O3)o2)nc1` (stereo not drawn) [JAC4], the “small intestine villus length” value in data set [1] (JAC4 100 mg/kg oral 7 days pretreatment, then TBI 6 Gy, tissue 7 days later) was 277.64±33.55 μm; in data set [1] (setting [5]), 306.54±14.00 μm; in data set [2] (TBI 6 Gy, then JAC4 100 mg/kg oral once daily 7 days), 263.11±37.99 μm; in data set [2] (setting [5]), 306.71±24.22 μm. Also, in data set [3], the “fluorescent colocalization correlation coefficient of the mitochondria and cytochrome C” value is 0.73±0.02. The tumor inhibition rate in data set [4] (100 mg/kg JAC4 + 3 Gy×5 X-ray combination therapy) was 78.05%; in data set [4] (100 mg/kg JAC4 intragastric daily, monotherapy), 25.45%. For the same molecule, the tumor volume entry in data set [4] (100 mg/kg JAC4 monotherapy) is recorded as “significantly smaller than the control group”. The tumor-to-body weight ratio entry in data set [4] (JAC4 + X-ray combination vs X-ray monotherapy group) is on record as “significantly reduced”. In data set [4] (JAC4 in combination with X-ray), the “H&E staining of tumor tissues” value was “promotes the necrosis of tumor tissues”. In addition, the death entry in data set [4] (all groups, JAC4 100 mg/kg with or without X-ray) was “no death occurred”. In addition, in data set [4] (among all groups, JAC4 100 mg/kg with or without X-ray), the body weight result is “no significant changes”.
